Data on four substances can be found in US5453444A, “Method to mitigate or eliminate weight loss” (Otsuka Pharmaceutical Co., Ltd., priority 1994, dated 1995).

One assay deals with IL-6 receptor. Description: Radioreceptor assay: binding of 125I-IL-6 to U266 cells. More on the design: species or system human. As to the method:
This experiment analyzed whether suramin inhibits IL-6 bioactivity by interfering with binding to the IL-6 receptor. Into eighteen test tubes was placed U266 indicator cells (obtained from ATCC), a binding buffer, made up of RPMI medium, 0.1 mg BSA and […] Hepes, and 100,000 cpm (0.8 ng) of ^125 I-IL-6. The tubes were divided into six groups of three tubes each and received suramin as follows: group 1 had 300 uM suramin; group 2 had 100 uM suramin; group 3 had 30 uM suramin; group 4 had 10 uM suramin; and group 5 had no suramin, but only medium (control for maximal binding). In addition, group 6 received excess unlabeled IL-6 without suramin for use in determining the background of binding in this assay.
After 90 minutes of incubation at 4° C. and the centrifugation of cells on oil (a standard radioreceptor assay) Strassmann, J. Immunol., 147:1279-1289 (1991), the amount of radioactivity bound to the cells was determined. […] Also, the addition of increasing amounts of suramin prevented the binding of radioactive IL-6 to U266 human myeloma indicator cells in vitro as reflected in the results set forth in FIG. 6.
The same procedure set forth in Example 6 was followed, except that Pentosan polysulfate was used instead of Suramin.

Another assay relates to IL-6. Description: IL-6 dependent proliferation of B-9 cells (3H-thymidine incorporation). To be noted: for cpm of 3H-thymidine, B-9 cells: Table 3; for proliferation of B-9 cells in response to IL-6: result in words; for cpm of 3H-thymidine incorporation, B-9 cells: Table 5. It is filed as cell-based. As to the method:
A standard proliferation assay, Strassmann et al., J. Immunol., 147:1279-1285 (1991), was conducted using 96 well plates The medium used was RPMI with 10% fetal calf serum B-9 cells were added and were cultured for 3 days. The extent of proliferation of B-9 cells was determined by the incorporation of radioactive thymidine as described in Strassmann et al., J. Clin. Invest., 89, pp. 1681-84 (May 1992). […] (See Strassmann et al., J. Clin. Invest., 89, pp. 1681-84 (May 1992), incorporated herein by reference.)
The same procedures set forth in Example 5 was followed except that a different sulfate-containing compound, Pentosan polysulfate, was used.
The same procedure set forth in Example 5 was followed except in this example, Dextran sulfate and Dextran, were used instead of Suramin.

As to “hIL-6: excess unlabeled IL-6 used for determining the background of binding in the radioreceptor assay”, the “cpm 125I-IL-6 bound to U266 cells” value with IL-6 receptor (270 ng/ml unlabeled competitor (background of binding)) came out at 1416 cpm.
Turning to Pentosan polysulfate, the “cpm of 3H-thymidine, B-9 cells” value in the assay with IL-6 (compound 300 μM, IL-6 added 1 pg/ml) came to 1567 cpm; with IL-6 (compound 300 μM, IL-6 added 3 pg/ml), 2648 cpm; in the assay on IL-6 (compound 300 μM, IL-6 added 10 pg/ml) it was 11456 cpm; with IL-6 (compound 300 μM, IL-6 added 30 pg/ml), 60287 cpm; in the assay with IL-6 (compound 1000 μM, IL-6 added 1 pg/ml), 795 cpm; in the assay with IL-6 (compound 1000 μM, IL-6 added 3 pg/ml) it was 1062 cpm. The “cpm of 3H-thymidine, B-9 cells” value was 3586 cpm in the assay with IL-6 (compound 1000 μM, IL-6 added 10 pg/ml) and 26727 cpm in the assay on IL-6 (compound 1000 μM, IL-6 added 30 pg/ml). Also, the “proliferation of B-9 cells in response to IL-6” value (shortened to “proliferation of B-9 cells”) in the assay with IL-6 was “prevented the proliferation of B-9 cells”. The “cpm 125I-IL-6 bound to U266 cells” value in the assay on IL-6 receptor (3 μM) is reported as 3000 cpm; with IL-6 receptor (30 μM) it was 2575 cpm; in the assay with IL-6 receptor (300 μM) it was 2003 cpm. In the assay on IL-6 receptor (90 minutes at 4° C., increasing amounts of compound), the “binding of radioactive IL-6 to U266 cells” value is reported as “inhibited the binding of radioactive IL-6 to U266 human myeloma cells”.
Take Dextran: the “cpm of 3H-thymidine incorporation, B-9 cells” value is on record as 24007 cpm in the assay with IL-6 (compound 30 μM, IL-6 3 pg/ml); 143003 cpm with IL-6 (compound 30 μM, IL-6 10 pg/ml); 231856 cpm with IL-6 (compound 30 μM, IL-6 30 pg/ml); 29577 cpm in the assay on IL-6 (compound 100 μM, IL-6 3 pg/ml); 136191 cpm in the assay on IL-6 (compound 100 μM, IL-6 10 pg/ml); 230321 cpm in the assay with IL-6 (compound 100 μM, IL-6 30 pg/ml). Moreover, the “cpm of 3H-thymidine incorporation, B-9 cells” value in the assay on IL-6 (compound 300 μM, IL-6 3 pg/ml) was 27015 cpm; in the assay with IL-6 (compound 300 μM, IL-6 10 pg/ml), 140903 cpm; in the assay with IL-6 (compound 300 μM, IL-6 30 pg/ml) it was 245701 cpm. Further, in the assay on IL-6, the “proliferation of B-9 cells” value is given as “did not prevent the proliferation of B-9 cells in response to IL-6”.
Consider Dextran sulfate, for which the “cpm of 3H-thymidine incorporation, B-9 cells” value in the assay with IL-6 (compound 30 μM, IL-6 3 pg/ml) is reported as 7603 cpm; in the assay on IL-6 (compound 30 μM, IL-6 10 pg/ml), 68066 cpm; in the assay with IL-6 (compound 30 μM, IL-6 30 pg/ml), 204155 cpm; in the assay with IL-6 (compound 100 μM, IL-6 3 pg/ml), 8075 cpm; in the assay with IL-6 (compound 100 μM, IL-6 10 pg/ml), 31678 cpm; in the assay with IL-6 (compound 100 μM, IL-6 30 pg/ml), 150233 cpm. Moreover, the “cpm of 3H-thymidine incorporation, B-9 cells” value with IL-6 (compound 300 μM, IL-6 3 pg/ml) is reported as 2461 cpm; in the assay on IL-6 (compound 300 μM, IL-6 10 pg/ml), 16573 cpm; with IL-6 (compound 300 μM, IL-6 30 pg/ml), 112835 cpm. Besides, the “proliferation of B-9 cells” value with IL-6 is “prevented the proliferation of B-9 cells in response to IL-6”.
